This note sets out measurements from patent US20230183249A1, “NEW TRIAZINOINDOLE COMPOUNDS” (JANSSEN PHARMACEUTICA NV, priority 2020, published 2023).

Some results are limits rather than exact numbers.

In one series the test system is TNF. Briefly: PBMC assay, TNF cytokine levels after LPS stimulation. The conditions noted are these: human PBMCs, 100 ng/ml LPS for 6 hrs, TNF in supernatant via MSD. It counts as cell-based. As for the experimental part:
(§1) Peripheral venous blood was collected from healthy individuals and human peripheral blood mononuclear cells (PBMCs) were isolated from blood by Ficoll-Histopaque (Sigma-Aldrich, A0561) density gradient centrifugation. After isolation, PBMCs were stored in liquid nitrogen for later use. Upon thawing, PBMC cell viability was determined in growth medium (RPMI media supplemented with 10% fetal bovine serum, 1% Pen-Strep and 1% L-glutamine). Compounds were spotted in a 1:3 serial dilution in DMSO and diluted to the final concentration in 30 μl medium in 96 well plates (Falcon, 353072). PBMCs were added at a density of 7.5×10^4 cells per well and incubated for 30 min in a 5% C02 incubator at 37° C. LPS stimulation was performed by addition of 100 ng/ml LPS (final concentration, Invivogen, tlrl-smlps) for 6 hrs followed by collection of cellular supernatant and the analysis of IL-1β (μM) and TNF cytokines levels (μM) via MSD technology according to manufacturers' guidelines (MSD, K151A0H).
The IC50 values (for IL-1β) and EC50 values (TNF) were obtained on compounds of the invention/examples, and are depicted in the following table: […]

The next series addresses T1, NLRP3 (Homo sapiens, UniProt Q96P20).
T1 construct: human peripheral blood mononuclear cells (PBMCs) were isolated from blood; endogenous in cells; host or cells: primary human PBMCs from healthy donors
Briefly: PBMC assay, IL-1β release after LPS stimulation. The format is cell-based. The conditions noted are these: human PBMCs, 100 ng/ml LPS for 6 hrs, IL-1β in supernatant via MSD; read-out: IL1β IC50. The method, then:
The activity of a compound according to the present invention can be assessed by in vitro methods.
as §1, with “Compounds were spotted in a 1:3 serial dilution in DMSO and diluted to the final concentration in 30 μl medium in 96 well plates (Falcon, 353072).” left out

One may read the EC50 as the concentration that produces a half-maximal response. Lower therefore signals greater potency. What is called IC50 is the concentration that inhibits the measured activity by half. By melting point is commonly meant the temperature of the solid-liquid transition.

T1 sequence (Q96P20 whole entry): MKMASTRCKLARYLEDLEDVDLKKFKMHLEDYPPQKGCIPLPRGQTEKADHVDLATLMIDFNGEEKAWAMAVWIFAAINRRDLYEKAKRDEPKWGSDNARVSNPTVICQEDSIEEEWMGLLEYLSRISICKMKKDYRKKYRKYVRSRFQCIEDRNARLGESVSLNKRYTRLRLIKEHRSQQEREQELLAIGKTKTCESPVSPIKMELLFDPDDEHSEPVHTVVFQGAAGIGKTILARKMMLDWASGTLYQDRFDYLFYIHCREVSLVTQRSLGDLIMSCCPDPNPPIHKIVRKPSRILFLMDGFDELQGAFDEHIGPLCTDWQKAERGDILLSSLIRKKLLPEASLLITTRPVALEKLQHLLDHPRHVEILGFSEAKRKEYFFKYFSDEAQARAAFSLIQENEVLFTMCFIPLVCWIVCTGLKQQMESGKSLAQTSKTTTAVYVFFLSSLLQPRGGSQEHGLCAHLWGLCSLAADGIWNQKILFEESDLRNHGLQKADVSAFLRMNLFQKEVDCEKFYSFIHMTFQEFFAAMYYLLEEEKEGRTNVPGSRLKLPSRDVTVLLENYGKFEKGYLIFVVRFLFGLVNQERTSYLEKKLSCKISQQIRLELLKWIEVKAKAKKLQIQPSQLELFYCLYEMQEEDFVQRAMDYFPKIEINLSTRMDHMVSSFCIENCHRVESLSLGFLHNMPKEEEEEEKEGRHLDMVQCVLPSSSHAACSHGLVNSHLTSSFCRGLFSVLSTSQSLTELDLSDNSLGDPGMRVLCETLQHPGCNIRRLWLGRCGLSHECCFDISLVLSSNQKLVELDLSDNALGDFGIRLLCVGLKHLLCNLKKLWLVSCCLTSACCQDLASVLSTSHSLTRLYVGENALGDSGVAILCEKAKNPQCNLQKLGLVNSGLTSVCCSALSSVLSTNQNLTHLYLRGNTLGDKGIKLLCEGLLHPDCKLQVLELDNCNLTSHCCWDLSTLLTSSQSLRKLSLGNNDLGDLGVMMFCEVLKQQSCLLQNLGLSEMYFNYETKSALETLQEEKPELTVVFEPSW

In the series with TNF, `O=C(Cn1nc(Cl)n2c(cc3ccccc32)c1=O)Nc1ccncn1` [Final Cpd 1, 2-(4-chloro-1-oxo-[1,2,4]triazino[4,5-a]indol-2-yl)-N-pyrimidin-4-yl-acetamide] came in with an EC50 greater than 10 µM. Further, the IC50 on NLRP3 is 0.62 µM.
On the same counts, the results for `O=C(Cn1ncn2c(cc3ccccc32)c1=O)Nc1ccncn1` [Final Cpd 2] are greater than 10 µM and 1.89 µM.
On the same counts, the results for `O=C(Cn1ncn2c(cc3ccc(F)cc32)c1=O)Nc1ccncn1` [Final Cpd 3] are greater than 10 µM and 1.58 µM.
On the same counts, the results for `O=C(Cn1nc(C2CCC2)n2c(cc3ccccc32)c1=O)Nc1ccncn1` [Final Cpd 4] are greater than 10 µM and 1.54 µM.
In the series with TNF, `O=C(Cn1nc(C(F)F)n2c(cc3ccccc32)c1=O)Nc1ccncn1` [Final Cpd 5] came in with an EC50 greater than 10 µM. In addition, the IC50 on NLRP3 was 0.47 µM.
On the same counts, the results for `CC(F)(F)c1nn(CC(=O)Nc2ccncn2)c(=O)c2cc3ccccc3n12` [Final Cpd 6] are greater than 10 µM and greater than 10 µM.
On the same counts, the results for `N#Cc1nn(CC(=O)Nc2ccncn2)c(=O)c2cc3ccccc3n12` [Final Cpd 7] are greater than 10 µM and 3.5 µM.
On to `O=C(Cn1nc(-c2ncco2)n2c(cc3ccccc32)c1=O)Nc1ccncn1` [Final Cpd 8], for which the EC50 in the series with TNF is greater than 10 µM. Further, the IC50 on NLRP3 turned out to be 5.8 µM.
`O=C(Cn1nc(C(F)(F)F)n2c(cc3ccccc32)c1=O)Nc1ccncn1` [Final Cpd 9]: the EC50 in the series on TNF was greater than 10 µM. For the same molecule, on NLRP3, the IC50 is 1.91 µM.
`CCc1nn(CC(=O)NC2CC2)c(=O)c2cc3ccc(F)cc3n12` [Final Cpd 10]: the melting point was 277.81 °C. This molecule also yielded a concentration giving a half-maximal response (EC50) with TNF greater than 10 µM. In addition, the IC50 at NLRP3 amounted to 1.68 µM.
Consider `COc1ncccc1NC(=O)Cn1nc(C(C)C)n2c(cc3ccccc32)c1=O` [Final Cpd 12], for which the EC50 with TNF is greater than 10 µM. Further, the IC50 at NLRP3 is 0.41 µM.
With `Cc1cc(NC(=O)Cn2nc(C(C)C)n3c(cc4ccccc43)c2=O)ccn1` [Final Cpd 13], the EC50 in the series on TNF was greater than 10 µM. Besides, the IC50 on NLRP3 is 0.15 µM.
With `CC(C)c1nn(CC(=O)Nc2ccncn2)c(=O)c2cc3ccccc3n12` [Final Cpd 14], in the series with TNF, the EC50 was greater than 10 µM. For the same molecule, on NLRP3, the IC50 was 0.17 µM.
`CCc1nn(CC(=O)Nc2cccnc2)c(=O)c2cc3ccccc3n12` [Final Cpd 15] yielded a melting point of 232.81 °C. The EC50 in the series on TNF is greater than 10 µM. Moreover, on NLRP3, the IC50 was determined as 0.63 µM.
With `CCc1nn(CC(=O)Nc2ccccc2OC)c(=O)c2cc3ccccc3n12` [Final Cpd 17], the melting point was found to be 216.79 °C. In the series with TNF, this molecule returned an EC50 greater than 10 µM. For the same molecule, the IC50 on NLRP3 was found to be 2.8 µM.
`O=C(Cn1nc(C2CC2)n2c(cc3ccccc32)c1=O)Nc1ccncn1` [Final Cpd 18]: the EC50 in the series with TNF was greater than 10 µM. Further, the IC50 at NLRP3 amounted to 0.76 µM.
On the same counts, the results for `CN(C)c1nn(CC(=O)NC2CCOCC2)c(=O)c2cc3ccccc3n12` [Final Cpd 20] are greater than 10 µM and 0.31 µM.
Consider `CN(C)c1nn(CC(=O)N[C@H]2CC[C@H](O)CC2)c(=O)c2cc3ccccc3n12` [Final Cpd 21], for which the EC50 with TNF was greater than 10 µM. In addition, the IC50 at NLRP3 came out at 0.39 µM.
On the same counts, the results for `CC(O)c1nn(CC(=O)Nc2ccncn2)c(=O)c2cc3ccccc3n12` (stereo not shown) [Final Cpd 22, 2-[4-(1-hydroxyethyl)-1-oxo-[1,2,4]triazino[4,5-a]indol-2-yl]-N-pyrimidin-4-yl-acetamide] are greater than 10 µM and 1.44 µM.
In the series on TNF, `Cc1nn(CC(=O)NC2CC2)c(=O)c2cc3ccccc3n12` [Final Cpd 23, N-cyclopropyl-2-(4-methyl-1-oxo-[1,2,4]triazino[4,5-a]indol-2-yl)acetamide] displayed a 50% effective concentration (EC50) greater than 10 µM. Besides, on NLRP3, the concentration for half-maximal inhibition (IC50) is 9.12 µM.
On the same counts, the results for `COc1nn(CC(=O)NC2CCOCC2)c(=O)c2cc3ccccc3n12` [Final Cpd 24, 2-(4-methoxy-1-oxo-[1,2,4]triazino[4,5-a]indol-2-yl)-N-tetrahydropyran-4-yl-acetamide] are greater than 10 µM and 1.17 µM.
On the same counts, the results for `O=C(Cn1nc(C2CCCC2)n2c(cc3ccccc32)c1=O)NC1CCOCC1` [Final Cpd 25] are greater than 20 µM and greater than 10 µM.
On the same counts, the results for `CC(C)Cc1nn(CC(=O)NC2CCOCC2)c(=O)c2cc3ccccc3n12` [Final Cpd 26] are greater than 10 µM and greater than 10 µM.
`O=C(Cn1nc(-c2cccs2)n2c(cc3ccccc32)c1=O)NC1CCOCC1` [Final Cpd 27]: the EC50 with TNF was greater than 10 µM. The IC50 at NLRP3 is greater than 10 µM.
In the series on TNF, `O=C(Cn1nc(C2CCCCC2)n2c(cc3ccccc32)c1=O)NC1CCOCC1` [Final Cpd 28] yielded an EC50 greater than 10 µM. For the same molecule, the IC50 on NLRP3 was greater than 10 µM.
Take `CC(C)c1nn(CC(=O)NC2CC2)c(=O)c2cc3ccccc3n12` [Final Cpd 29]: the EC50 in the series on TNF is greater than 10 µM. Besides, on NLRP3, the IC50 came to 0.66 µM.
`CCc1nn(CC(=O)Nc2ccncn2)c(=O)c2cc3ccc(C)cc3n12` [Final Cpd 30]: the melting point stood at 248.91 °C. In the series with TNF, this molecule gave an EC50 greater than 10 µM. Moreover, on NLRP3, the IC50 is greater than 10 µM.
Molecule `CCc1nn(CC(=O)Nc2ccncc2)c(=O)c2cc3ccc(F)cc3n12` [Final Cpd 31] displayed an EC50 with TNF greater than 10 µM. Also, the IC50 at NLRP3 came to 0.79 µM.
Molecule `CCc1nn(CC(=O)NC2CCOCC2)c(=O)c2cc3ccc(C)cc3n12` [Final Cpd 32] returned a melting point of 264.11 °C. Also, the EC50 in the series with TNF is greater than 10 µM. Besides, on NLRP3, the IC50 is greater than 10 µM.
Turning to `CCc1nn(CC(=O)Nc2ccncn2)c(=O)c2cc3ccc(F)cc3n12` [Final Cpd 33], in the series on TNF, the 50% effective concentration (EC50) is greater than 10 µM. Besides, the IC50 at NLRP3 was found to be 0.31 µM.
The molecule `CCc1nn(CC(=O)NC2CCOCC2)c(=O)c2cc3cc(C)ccc3n12` [Final Cpd 34] came in with a melting point of 274.18 °C. The EC50 in the series on TNF was greater than 10 µM. Also, on NLRP3, the IC50 came out at 7.24 µM.
Consider `CCc1nn(CC(=O)Nc2ccncn2)c(=O)c2cc3cc(F)ccc3n12` [Final Cpd 36], for which the EC50 in the series with TNF is greater than 10 µM. Further, the IC50 on NLRP3 came out at 7.24 µM.
For the molecule `CCc1nn(CC(=O)Nc2ccncn2)c(=O)c2cc3cc(C)ccc3n12` [Final Cpd 37], the EC50 in the series with TNF is greater than 10 µM. In addition, the IC50 at NLRP3 was greater than 10 µM.
With `CCc1nn(CC(=O)N[C@H]2C[C@@](C)(O)C2)c(=O)c2cc3ccc(F)cc3n12` [Final Cpd 39, 2-{4-ethyl-7-fluoro-1-oxo-[1,2,4]triazino[4,5-a]indol-2(1H)-yl}-N-((1s,3s)-3-hydroxy-3-methylcyclobutyl)acetamide], the EC50 in the series with TNF is greater than 20 µM. Besides, the IC50 on NLRP3 was determined as 0.176 µM.
On the same counts, the results for `CN(C)c1nn(CC(=O)N[C@H]2C[C@@](C)(O)C2)c(=O)c2cc3ccc(F)cc3n12` [Final Cpd 40] are greater than 20 µM and 0.237 µM.
As to `CC(C)c1nn(CC(=O)N[C@H]2C[C@@](C)(O)C2)c(=O)c2cc3ccccc3n12` [Final Cpd 41], in the series on TNF, the EC50 was 15.4 µM. Also, the IC50 at NLRP3 was determined as 0.052 µM.
On the same counts, the results for `CC(C)c1nn(CC(=O)N[C@H]2C[C@@](C)(O)C2)c(=O)c2cc3ccc(F)cc3n12` [Final Cpd 42] are 10.9 µM and 0.077 µM.
On the same counts, the results for `CCc1nn(CC(=O)N[C@H]2C[C@@](C)(O)C2)c(=O)c2cc3ccccc3n12` [Final Cpd 43] are greater than 20 µM and 0.086 µM.
For the molecule `CN(C)c1nn(CC(=O)N[C@H]2C[C@@](C)(O)C2)c(=O)c2cc3ccccc3n12` [Final Cpd 44], the EC50 in the series on TNF was greater than 20 µM. Besides, on NLRP3, the IC50 turned out to be 0.057 µM.
On the same counts, the results for `CC(C)c1nn(CC(=O)Nc2ccc3nncn3c2)c(=O)c2cc3ccc(F)cc3n12` [Final Cpd 46] are greater than 20 µM and 0.044 µM.
On the same counts, the results for `CN(C)c1nn(CC(=O)Nc2ccc3nncn3c2)c(=O)c2cc3ccccc3n12` [Final Cpd 47] are greater than 20 µM and 0.052 µM.
Turning to `CCc1nn(CC(=O)Nc2ccc3nncn3c2)c(=O)c2cc3ccccc3n12` [Final Cpd 48], the EC50 with TNF is greater than 20 µM. For the same molecule, the IC50 on NLRP3 was 0.122 µM.
Consider `CC(C)c1nn(CC(=O)Nc2ccc3nncn3n2)c(=O)c2cc3ccccc3n12` [Final Cpd 49, N-([1,2,4]triazolo[4,3-b]pyridazin-6-yl)-2-(4-isopropyl-1-oxo-[1,2,4]triazino[4,5-a]indol-2(1H)-yl)acetamide], for which, in the series on TNF, the EC50 amounted to 3.94 µM. Further, the IC50 on NLRP3 is 0.025 µM.
On the same counts, the results for `COc1nn(CC(=O)NC2CC2)c(=O)c2cc3ccccc3n12` [Final Cpd 50] are greater than 10 µM and 4.07 µM.
